Reference: PMC3293837, “Biophysical Property and Broad Anti-HIV Activity of Albuvirtide, a 3-Maleimimidopropionic Acid-Modified Peptide Fusion Inhibitor” (PLoS ONE, 2012)

Legend:
Assay type in all cases: cell-based
[1] = tested on: HIV-1NL4-3 D36S/V38M pseudovirus; conditions: HIV-1NL4-3 D36S/V38M; TZM-bl, 48 h; mean ± SD of three independent experiments
Protocol: (§1) The mutations were created using double-stranded DNA templates and selection of mutants with DpnI. For each mutation, the two primers contained the desired mutation and occupied the same starting and ending positions on opposite strands of the plasmid DNA. DNA synthesis was carried out by PCR in a 50-µL reaction volume using 1 µL of denatured plasmid template (1 ng/µL), 50 pmol of upper and lower primers and 5 U of high-fidelity thermostable polymerase PrimeStar (Takara, Dalian, China). PCR amplification was carried out for one cycle of denaturation at 98°C for 5 min, then 18 cycles of 98°C for 15 s and 68°C for 15 min, followed a final extension at 72°C for 10 min. The amplicons were treated with the restriction enzyme DpnI for 1 h at 37°C. DpnI-resistant molecules, which were rich in the desired mutants, were recovered by transforming Escherichia coli strain-DH5α to antibiotic resistance. The successful mutations were confirmed by sequencing.
(§2) HIV-1 pseudoviruses were generated as described previously [32], [55]–[56]. Briefly, 293T cells (5×10^6 cells in 15 ml of growth medium in a T-75 culture flask) were cotransfected with 10 µg of an Env-expressing plasmid and 20 µg of a backbone plasmid pSG3deltaEnv that encodes Env-defective, luciferase-expressing HIV-1 genome using Lipofectamine 2000 reagent (Invitrogen). Pseudovirus-containing culture supernatants were harvested 48 hours after transfection and filtered by 0.45-mm pore size, and stored at −80°C in 1-ml aliquots until use. The 50% tissue culture infectious dose (TCID50) of a single thawed aliquot of each pseudovirus batch was determined in TZM-bl cells. […] Briefly, the peptides were prepared with ten series dilutions in a 3-fold stepwise manner and mixed with 100 TCID50 viruses and incubated 1 hour at room temperature. The mixture was added to TZM-bl cells (10^4/well) and incubation at 37°C for 48 hours. Luciferase activity was measured using luciferase assay regents (Promega, Medison, WI) and a Luminescence Counter (Promega) according to the manufacture's instructions.

[2] = tested on: HIV-1NL4-3 D36G pseudovirus
Protocol: as §2

[3] = tested on: HIV-1NL4-3 V38M pseudovirus
Protocol: as §2

[4] = tested on: HIV-1NL4-3 I37T/N43K pseudovirus; conditions: HIV-1NL4-3 I37T/N43K; TZM-bl, 48 h; mean ± SD of three independent experiments
Protocol: as §1, §2

[5] = tested on: HIV-1NL4-3 N43K pseudovirus; conditions: HIV-1NL4-3 N43K; TZM-bl, 48 h; mean ± SD of three independent experiments
Protocol: as §1, §2

[6] = tested on: HIV-1NL4-3 I37T pseudovirus; conditions: HIV-1NL4-3 I37T; TZM-bl, 48 h; mean ± SD of three independent experiments
Protocol: as §2

Q: What does the source list for enfuvirtide?
A: IC50 [1]: 0.323 ± 0.0603 µM; increase in sensitivity of D36G mutant ([2]; D36G relative to WT HIV-1NL4-3): 8.3 fold; IC50 ([2]; HIV-1NL4-3 D36G, TZM-bl, 48 h, mean ± SD of three independent experiments): 0.0075 ± 0.0013 µM; IC50 ([3]; HIV-1NL4-3 V38M, TZM-bl, 48 h, mean ± SD of three independent experiments): 0.646 ± 0.0577 µM; resistance change with V38M (in words) ([3]; V38M single mutation): high-fold resistance changes; IC50 [4]: > 3 µM; IC50 [5]: 0.262 ± 0.0444 µM; IC50 [6]: 0.3 ± 0.0551 µM
